Measured values from US20160157490A1, “COMPOSITIONS COMPRISING A GERMINANT AND AN ANTIMICROBIAL AGENT” (priority 2010, published 2016).

Test system: C. difficile spores
Assay: Germination efficacy testing of germinant solution with antimicrobial and preservative (neutraliser, heat shock or ice)
Format: cell-based
Conditions: for effect on the germinant solution / germination: antimicrobial added to germinant solution; for initiation of germination / sporicidal activity: without amino acids and taurocholate
Protocol: The solution was heated and mixed thoroughly to dissolve all of the components before filtration through a pore size of 0.2 μm for sterilization. (This solution is double the working strength as it is diluted 1:2 during the experiment).
The pH was adjusted to 7 and was autoclaved to sterilize.
For the control, 100 μL of sterilized distilled water was mixed with 100 μL of C. difficile spore suspension. Spore suspensions were also incubated with solutions containing benzalkonium chloride and Tris buffer (without amino acids or taurocholate), benzyl alcohol with Tris buffer (without amino acids and taurocholate) and a solution containing the five amino acids and taurocholate (with no antimicrobials). […] (miniMACS Anaerobic Workstation (Don Whitley Scientific Ltd)).

Compound	effect on the germinant solution / germination	initiation of germination	sporicidal activity
O=C(O)CN(CCN(CC(=O)O)CC(=O)O)CC(=O)O [EDTA]	inhibit the germinant solution		
N=C(NCCCCCCNC(=N)NC(=N)Nc1ccc(Cl)cc1)NC(=N)Nc1ccc(Cl)cc1.O=C(O)[C@H](O)[C@@H](O)[C@H](O)[C@H](O)CO.O=C(O)[C@H](O)[C@@H](O)[C@H](O)[C@H](O)CO [cholorohexidine]	inhibit the germinant solution		
benzalkonium chloride	do not affect germination	did not initiate germination	not sporicidal
OCc1ccccc1 [benzyl alcohol]	do not affect germination	did not initiate germination	not sporicidal
